Assay results reported in patent US12251422B2, “Compositions and methods for treating neurological and other disorders” (Rush University Medical Center, priority 2018, dated 2025).

What was measured:
IL-1β and iNOS = test: mRNA expression of IL-1β and iNOS in BV-2 microglial cells (RT-PCR, real-time PCR); format: cell-based; conditions: 10 μM peptide 1 h
Description: FIG. 4(A-S). Effect of wtTIDM and mTIDM peptides on the induction of NF-κB activation and the expression of proinflammatory molecules in microglial cells. BV-2 microglial cells preincubated with 10 μM wtTIDM/mTIDM peptides for 1 h were stimulated with 1 μM fibrillar Aβ1-42 (A-C), 1 μM MPP+ (D-F), 250 ng/ml LTA (G-I), […] LPS (J-L), 1 μM flagellin (M-O), and 1 μM CpG DNA (P-R) under serum-free condition. After 1 h of stimulation, the activation of NF-κB was monitored in nuclear extracts by EMSA (A, fibrillar Aβ; D, MPP+; G, LTA; J, LPS; M, flagellin, P; CpG DNA). After 4 h of stimulation, the mRNA expression of IL-1β (B, E, H, K, N, & Q) and iNOS (C, F, I, L, O, & R) was monitored by real-time PCR (B-C, fibrillar Aβ; E-F, MPP+; H-I, LTA; K-L, LPS; N-O, flagellin; Q-R, CpG DNA) (n=2 replicates/dose in 3 independent experiments). ap<0.001 vs control; bp<0.001 vs stimuli by two-sample t-tests. […]
FIG. 13 (A-F). […] After 4 h of stimulation, the mRNA expression of IL-1β and iNOS was monitored by RT-PCR (n=2 replicates/condition in 3 independent experiments).
FIG. 14 (A-D). […] A) After 1 h of stimulation, the activation of NF-κB was monitored in nuclear extracts by EMSA. […]
DNase-digested RNA was analyzed by real-time PCR in the AβI-Prism7700 sequence detection system (Applied Biosystems, Foster City, CA) as described earlier (23, 57).

5×FAD Tg mice [1] = test: Tau phosphorylation in hippocampus of 5×FAD Tg mice; format: in vivo, mouse; conditions: 0.1 mg/kg body wt/2 d intranasal, 30 d
Description: FIG. 22 (A-B). Intranasal delivery of wtTIDM, but not mTIDM, peptide decreases the phosphorylation of tau in the hippocampus of Tg mice. […] B) Bands were scanned and values (P-Tau/Tau) presented as relative to non-Tg control. Results were analyzed by two-sample t-tests.
(§1) B6SJL-Tg (APPSwFlLon,PSEN1*M146L*L286V) 6799Vas/J transgenic (5×FAD or termed here as Tg) mice were purchased from Jackson Laboratories (Bar Harbor, ME). […] Briefly, TIDM peptides were dissolved in 5 μl normal saline, mice were hold in supine position and saline was delivered into one nostril using a pipetman.

5×FAD Tg mice [2] = test: Novel object recognition test in 5×FAD Tg mice; format: in vivo, mouse; conditions: vs untreated Tg or mTIDM-treated Tg mice
Description: (§2) FIG. 6 (A-N). Intranasal delivery of wtTIDM, but not mTIDM, peptide inhibits neuronal apoptosis in vivo in the hippocampus and improves memory and learning in Tg mice. […] After 30 d of treatment, mice were sacrificed and hippocampal sections were double-labeled for TUNEL & NeuN (A). […] Hippocampal extracts of all groups of mice (n=4) were immunoblotted for cleaved caspase 3 (D). Actin was run as loading control. E) Bands were scanned and values (cleaved caspase 3/Actin) are presented as relative to non-Tg control. […] Protein levels of PSD-95. NR2A and GluR1 were monitored in hippocampal extracts by Western blot (F). Bands were scanned and values (G, PSD-95/Actin; H, NR2A/Actin; I, GluR1/Actin) are presented as relative to non-Tg control. […] Mice were tested for Barnes maze (J, latency; K, number of errors made) and T maze (L, number of positive turns; M, number of negative turns). Short-term memory was also monitored by novel object recognition test, which is represented by discrimination index (N). Eight mice (n=8) were used in each group and results were analyzed by one-way ANOVA.
Novel object recognition task was performed to monitor the short term memory as described by others (58) and us (57). Briefly, during training, mice were placed in a square novel box (20 inches long by 8 inches high) surrounded with infrared sensor. […]

5×FAD Tg mice [3] = test: Neuronal apoptosis and plasticity-related molecules in hippocampus of 5×FAD Tg mice; format: in vivo, mouse; conditions: 0.1 mg/kg body wt/2 d intranasal, 30 d
Description: as §2, §1
It was performed using a commercially available kit (TdT FragEL™, Calbiochem) as described before (10, 22).

## CC[C@H](C)[C@H](NC(=O)[C@H](CCCCN)NC(=O)[C@@H](NC(=O)[C@H](CCC(N)=O)NC(=O)[C@H](CCCNC(=N)N)NC(=O)[C@@H](N)CC(=O)O)[C@@H](C)CC)C(=O)N[C@@H](Cc1c[nH]c2ccccc12)C(=O)N[C@@H](Cc1ccccc1)C(=O)N[C@@H](CCC(N)=O)C(=O)N[C@@H](CC(N)=O)C(=O)N[C@@H](CCCNC(=N)N)C(=O)N[C@@H](CCCNC(=N)N)C(=O)N[C@@H](CCSC)C(=O)N[C@@H](CCCCN)C(=O)N[C@@H](Cc1c[nH]c2ccccc12)C(=O)N[C@@H](CCCCN)C(=O)N[C@@H](CCCCN)C(=O)N1CCC[C@H]1C(=O)NCC(=O)N[C@@H](C)C(=O)N[C@@H](Cc1c[nH]cn1)C(=O)N[C@@H](CCC(N)=O)C(=O)N[C@@H](CCCCN)C(=O)O [wtTIDM, drqikiwfqnrrmkwkkPGAHQK]
IL-1β and iNOS; 250 ng/ml LTA for 4 h
  inhibition of expression of proinflammatory molecules (IL-1β, iNOS) induced by LTA: inhibited
IL-1β and iNOS; 1 μM fibrillar Aβ1-42 for 4 h
  inhibition of expression of proinflammatory molecules (IL-1β, iNOS) induced by fibrillar Aβ: inhibited
5×FAD Tg mice [1]
  phospho-tau in the hippocampus: suppression
  total level of tau protein: without affecting
5×FAD Tg mice [2]
  short-term memory, novel object recognition (discrimination index): significant improvement
5×FAD Tg mice [3]
  PSD-95, NR2A and GluR1 proteins in the hippocampus: significant restoration
  elevated level of cleaved caspase 3 in the hippocampus: reduced
  neuronal apoptosis in the hippocampus (TUNEL & NeuN): attenuated
